According to the supplement of paper PMC11061612:

Tests used:
Assay in all cases: combination Emax (second highest fraction inhibited in the dose matrix, 72 h); higher = more inhibition; extreme values may be limits of the assay
[1] = tested on: HSC-4 (Oral Cavity Carcinoma)
Summary of the method: (§1)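 Cell lines grown in DMEM/F12 or RPMI with 10% FBS were plated in 1536-well plates and held 24 hours at 37°C, 5% CO2 before 72 hours of exposure to two-drug dose matrices, with DMSO typically at 0.2%. CellTiter-Glo 2.0 luminescence gave viability, which was converted to inhibition. Vehicle wells were set to 0 and blank wells to 1. Combination Emax is the second-highest inhibition in the matrix, and Bliss excess is the observed combination effect minus the expected EA + EB − EA·EB, where EA and EB are the single-agent effects.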

[2] = tested on: VA-ES-BJ (Other Solid Carcinomas)
Summary of the method: as §1

[3] = tested on: RF-48 (B-Cell Non-Hodgkin's Lymphoma)
Summary of the method: as §1

YH-13 (Glioblastoma) = tested on: YH-13 (Glioblastoma)
Summary of the method: as §1

[4] = tested on: Caov-4 (Ovarian Carcinoma)
Summary of the method: as §1

[5] = tested on: PANC-04-03 (Pancreatic Carcinoma)
Summary of the method: as §1

[6] = tested on: Ca9-22 (Head and Neck Carcinoma)
Summary of the method: as §1

[7] = tested on: NCI-H1915 (Non-Small Cell Lung Carcinoma)
Summary of the method: as §1

TGW (Neuroblastoma) = tested on: TGW (Neuroblastoma)
Summary of the method: as §1

[8] = tested on: KYSE-450 (Esophageal Squamous Cell Carcinoma)
Summary of the method: as §1

PWR-1E (Non-Cancerous) = tested on: PWR-1E (Non-Cancerous)
Summary of the method: as §1

[9] = tested on: NEC8 (Other Solid Carcinomas)
Summary of the method: as §1

ACHN (Kidney Carcinoma) = tested on: ACHN (Kidney Carcinoma)
Summary of the method: as §1

[10] = tested on: MIA-PaCa-2 (Pancreatic Carcinoma)
Summary of the method: as §1

EW-24 (Ewing's Sarcoma) = tested on: EW-24 (Ewing's Sarcoma)
Summary of the method: as §1

[11] = tested on: KARPAS-299 (T-Cell Non-Hodgkin's Lymphoma)
Summary of the method: as §1

[12] = tested on: NUGC-3 (Gastric Carcinoma)
Summary of the method: as §1

[13] = tested on: HGC-27 (Gastric Carcinoma)
Summary of the method: as §1

[14] = tested on: LU-65 (Non-Small Cell Lung Carcinoma)
Summary of the method: as §1

[15] = tested on: HOP-62 (Lung Adenocarcinoma)
Summary of the method: as §1

SMILES | combination Emax [1] | combination Emax [2] | combination Emax [3] | combination Emax (YH-13 (Glioblastoma)) | combination Emax [4] | combination Emax [5] | combination Emax [6] | combination Emax [7] | combination Emax (TGW (Neuroblastoma)) | combination Emax [8] | combination Emax (PWR-1E (Non-Cancerous)) | combination Emax [9] | combination Emax (ACHN (Kidney Carcinoma)) | combination Emax [10] | combination Emax (EW-24 (Ewing's Sarcoma)) | combination Emax [11] | combination Emax [12] | combination Emax [13] | combination Emax [14] | combination Emax [15]
Cn1cnc2c(F)c(Nc3ccc(Br)cc3Cl)c(C(=O)NOCCO)cc21 [Selumetinib] + C=CCn1c(=O)c2cnc(Nc3ccc(N4CCN(C)CC4)cc3)nc2n1-c1cccc(C(C)(C)O)n1 [AZD1775] (first compound max 10 µM, partner max 1 µM) | 0.427 | 0.468 | 0.489 | 0.329 | 0.764 | 0.456 | 0.55 | 0.846 | 0.566 | 0.499 | 0.34 | 0.628 | 0.863 | 0.767 | 0.334 | 0.851 | 0.639 | 0.536 | 0.908 | 0.487
Cn1cnc2c(F)c(Nc3ccc(Br)cc3Cl)c(C(=O)NOCCO)cc21 [Selumetinib] + CC(C)n1c(=O)n(C)c2cnc3cc(F)c(-c4ccc(OCCCN5CCCCC5)nc4)cc3c21 [AZD1390] (first compound max 10 µM, 7x7, partner max 0.3 µM) | 0.132 | 0.129 | 0.119 | 0.131 | 0.492 | 0.418 | 0.44 | 0.641 | 0.0418 | 0.0763 | 0.131 | 0.0259 | 0.305 | 0.535 | 0.132 | 0.347 | 0.328 | 0.171 | 0.598 | 0.409
Cn1cnc2c(F)c(Nc3ccc(Br)cc3Cl)c(C(=O)NOCCO)cc21 [Selumetinib] + CCN(CCO)CCCOc1ccc2c(Nc3cc(CC(=O)Nc4cccc(F)c4)[nH]n3)ncnc2c1 [AZD2811] (first compound max 10 µM, 7x7, partner max 1 µM) | 0.345 | 0.327 | 0.312 | 0.429 | 0.551 | 0.479 | 0.475 | 0.6 | 0.0777 | 0.209 | 0.579 | 0.0754 | 0.366 | 0.657 | 0.427 | 0.252 | 0.551 | 0.71 | 0.635 | 0.475
Cn1cnc2c(F)c(Nc3ccc(Br)cc3Cl)c(C(=O)NOCCO)cc21 [Selumetinib] + C[C@@H]1COCCN1C2=NC(=NC(=C2)C3(CC3)[S@](=N)(=O)C)C4=C5C=CNC5=NC=C4 [AZD6738] (first compound max 10 µM, 7x7, partner max 10 µM) | 0.595 | 0.714 | 0.371 | 0.51 | 0.76 | 0.516 | 0.869 | 0.701 | 0.577 | 0.356 | 0.935 | 0.764 | 0.804 | 0.686 | 0.667 | 0.929 | 0.666 | 0.734 | 0.808 | 0.569
CC(=O)Nc1cccc(-n2c(=O)n(C3CC3)c(=O)c3c(Nc4ccc(I)cc4F)n(C)c(=O)c(C)c32)c1 [Trametinib] + Cc1nc(-c2cn3c(n2)-c2ccc(-c4cnn(C(C)(C)C(N)=O)c4)cc2OCC3)n(C(C)C)n1 [Taselisib] (first compound max 1 µM, 7x7, partner max 10 µM) | 0.686 | 0.687 | 0.345 | 0.916 | 0.76 | 0.89 | 0.936 | 1 | 0.694 | 0.753 | 0.864 | 0.674 | 0.643 | 0.887 | 0.6 | 0.639 | 0.865 | 0.924 | 0.985 | 0.778
CC1(C)CCC(CN2CCN(c3ccc(C(=O)NS(=O)(=O)c4ccc(NCC5CCOCC5)c([N+](=O)[O-])c4)c(Oc4cnc5[nH]ccc5c4)c3)CC2)=C(c2ccc(Cl)cc2)C1 [Venetoclax] + C1CN(CCC1(C(=O)N[C@@H](CCO)C2=CC=C(C=C2)Cl)N)C3=NC=NC4=C3C=CN4 [Capivasertib] (first compound max 1 µM, 7x7, partner max 3 µM) | 0.306 | 0.264 | 0.364 | 0.259 | 0.282 | 0.199 | 0.212 | 0.141 | 0.465 | 0.197 | 0.203 | 0.174 | 0.81 | 0.213 | 0.395 | 0.837 | 0.227 | 0.814 | 0.462 | 0.14
CC1(C)CCC(CN2CCN(c3ccc(C(=O)NS(=O)(=O)c4ccc(NCC5CCOCC5)c([N+](=O)[O-])c4)c(Oc4cnc5[nH]ccc5c4)c3)CC2)=C(c2ccc(Cl)cc2)C1 [Venetoclax] + C=CCn1c(=O)c2cnc(Nc3ccc(N4CCN(C)CC4)cc3)nc2n1-c1cccc(C(C)(C)O)n1 [AZD1775] (first compound max 1 µM, partner max 1 µM) | 0.372 | 0.503 | 0.667 | 0.381 | 0.811 | 0.466 | 0.903 | 0.634 | 0.846 | 0.614 | 0.548 | 0.42 | 0.96 | 0.795 | 0.34 | 0.951 | 0.596 | 0.54 | 0.733 | 0.446
CC1(C)CCC(CN2CCN(c3ccc(C(=O)NS(=O)(=O)c4ccc(NCC5CCOCC5)c([N+](=O)[O-])c4)c(Oc4cnc5[nH]ccc5c4)c3)CC2)=C(c2ccc(Cl)cc2)C1 [Venetoclax] + CCN(CCO)CCCOc1ccc2c(Nc3cc(CC(=O)Nc4cccc(F)c4)[nH]n3)ncnc2c1 [AZD2811] (first compound max 1 µM, 7x7, partner max 1 µM) | 0.203 | 0.359 | 0.43 | 0.576 | 0.263 | 0.196 | 0.236 | 0.224 | 0.568 | 0.27 | 0.455 | 0.205 | 0.739 | 0.37 | 0.457 | 0.818 | 0.298 | 0.809 | 0.249 | 0.342
CC1(C)CCC(CN2CCN(c3ccc(C(=O)NS(=O)(=O)c4ccc(NCC5CCOCC5)c([N+](=O)[O-])c4)c(Oc4cnc5[nH]ccc5c4)c3)CC2)=C(c2ccc(Cl)cc2)C1 [Venetoclax] + CN(C)CCCOc1ccc(-c2ccc3ncc4c(c3c2)n(C2CCOCC2)c(=O)n4C)cn1 [AZD0156] (first compound max 1 µM, 7x7, partner max 1 µM) | 0.14 | 0.227 | 0.212 | 0.198 | 0.226 | 0.18 | 0.48 | 0.285 | 0.32 | 0.15 | 0.217 | 0.174 | 0.78 | 0.375 | 0.323 | 0.807 | 0.276 | 0.362 | 0.362 | 0.242
CC1(C)CCC(CN2CCN(c3ccc(C(=O)NS(=O)(=O)c4ccc(NCC5CCOCC5)c([N+](=O)[O-])c4)c(Oc4cnc5[nH]ccc5c4)c3)CC2)=C(c2ccc(Cl)cc2)C1 [Venetoclax] + COc1cc(Nc2ncc3c(n2)-c2ccc(Cl)cc2C(c2c(F)cccc2OC)=NC3)ccc1C(=O)O [Alisertib] (first compound max 1 µM, 7x7, partner max 10 µM) | 0.28 | 0.505 | 0.59 | 0.549 | 0.447 | 0.263 | 0.706 | 0.455 | 0.972 | 0.437 | 0.859 | 0.183 | 0.698 | 0.583 | 0.428 | 0.762 | 0.436 | 0.919 | 0.314 | 0.456
CC1(C)CCC(CN2CCN(c3ccc(C(=O)NS(=O)(=O)c4ccc(NCC5CCOCC5)c([N+](=O)[O-])c4)c(Oc4cnc5[nH]ccc5c4)c3)CC2)=C(c2ccc(Cl)cc2)C1 [Venetoclax] + C[C@@H]1COCCN1C2=NC(=NC(=C2)C3(CC3)[S@](=N)(=O)C)C4=C5C=CNC5=NC=C4 [AZD6738] (first compound max 1 µM, 7x7, partner max 10 µM) | 0.601 | 0.813 | 0.562 | 0.5 | 0.751 | 0.443 | 0.865 | 0.538 | 0.715 | 0.519 | 0.932 | 0.749 | 0.937 | 0.666 | 0.731 | 0.954 | 0.711 | 0.8 | 0.652 | 0.624
CC1(C)CCC(CN2CCN(c3ccc(C(=O)NS(=O)(=O)c4ccc(NCC5CCOCC5)c([N+](=O)[O-])c4)c(Oc4cnc5[nH]ccc5c4)c3)CC2)=C(c2ccc(Cl)cc2)C1 [Venetoclax] + C[C@@H](Nc1cc(F)cc(F)c1)c1cc(C(=O)N(C)C)cc2c(=O)cc(N3CCOCC3)oc12 [AZD8186] (first compound max 1 µM, 7x7, partner max 3 µM) | 0.177 | 0.149 | 0.345 | 0.441 | 0.171 | 0.149 | 0.471 | 0.118 | 0.377 | 0.118 | 0.173 | 0.0292 | 0.842 | 0.153 | 0.26 | 0.829 | 0.183 | 0.54 | 0.199 | 0.264
